Assay results as given in patent publication US20260176320A1, “MODULATORS OF G-PROTEIN COUPLED RECEPTORS” (priority 2018, published 2026).
Like-named read-outs stand apart in the source and are kept apart here.

Columns and labels:
Type in all cases: cell-based
[1] = target: T1, GIP-R (Homo sapiens, UniProt P48546); assay: HitHunter cAMP assay (GIP-R); details: cAMP; for Emax: read-out: (Emax) GIP-R
T1 sequence (P48546 22-466): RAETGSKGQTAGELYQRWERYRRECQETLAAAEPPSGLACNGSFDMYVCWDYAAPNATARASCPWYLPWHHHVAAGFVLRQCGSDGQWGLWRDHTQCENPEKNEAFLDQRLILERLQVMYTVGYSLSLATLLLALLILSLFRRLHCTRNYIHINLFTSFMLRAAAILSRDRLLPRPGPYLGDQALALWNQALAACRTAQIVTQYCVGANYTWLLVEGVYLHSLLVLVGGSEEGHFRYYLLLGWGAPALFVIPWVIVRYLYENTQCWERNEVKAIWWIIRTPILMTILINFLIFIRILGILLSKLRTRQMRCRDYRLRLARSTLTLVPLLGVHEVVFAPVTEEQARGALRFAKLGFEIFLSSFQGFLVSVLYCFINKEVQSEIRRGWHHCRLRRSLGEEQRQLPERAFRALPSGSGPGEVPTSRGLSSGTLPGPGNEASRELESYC
Summary of the method: (§1)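 Duplicate 22-point, 2-fold agonist titrations applied to receptor-expressing suspension cells in IBMX-containing HBSS; 30 min RT stimulation. Read: luminescent cAMP immunocompetition after O/N dark incubation.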

[2] = target: T2, GLP-1R (Homo sapiens, UniProt P43220); assay: PathHunter β-arrestin assay
Summary of the method: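 Following a 90 min agonist exposure at 37 °C in 0.2% BSA medium, β-arrestin coupling was detected by chemiluminescence after 3 h at room temperature.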

[3] = target: T2, GLP-1R; assay: HitHunter cAMP assay (GLP-1R); details: cAMP; for Emax: read-out: (Emax) GLP-1R
Summary of the method: as §1

[4] = Table 3A, read-out: EC50 GIP-R/nM
[5] = PathHunter β-arrestin assay, read-out: β-arrestin activity EC50
[6] = Table 3A, read-out: EC50 GLP-1R/nM

T2 sequence (P43220 24-463): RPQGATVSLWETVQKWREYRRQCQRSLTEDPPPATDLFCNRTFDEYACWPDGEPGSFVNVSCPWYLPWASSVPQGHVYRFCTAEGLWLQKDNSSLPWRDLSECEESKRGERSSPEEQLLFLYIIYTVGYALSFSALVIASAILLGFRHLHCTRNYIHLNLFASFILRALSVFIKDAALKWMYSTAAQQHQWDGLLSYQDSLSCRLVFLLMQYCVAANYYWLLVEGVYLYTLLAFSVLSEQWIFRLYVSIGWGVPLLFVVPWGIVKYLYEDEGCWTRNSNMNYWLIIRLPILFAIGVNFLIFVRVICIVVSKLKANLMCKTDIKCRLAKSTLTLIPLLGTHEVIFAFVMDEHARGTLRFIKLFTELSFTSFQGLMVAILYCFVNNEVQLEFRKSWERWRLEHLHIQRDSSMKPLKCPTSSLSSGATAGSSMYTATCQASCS

| Compound | EC50 ([1]; EC50 GIP-R/nM, Table 3A) [nM] | Emax ([1]; Table 3A) [%] | EC50 [2] [nM] | EC50 ([3]; EC50 GLP-1R/nM, Table 3A) [nM] | Emax ([3]; Table 3A) [%] | Emax ([1]; Table 3) [%] | EC50 ([1]; Table 3, read-out: EC50 GIP-R/nM) [nM] | EC50 [1, 4] [nM] | EC50 [2, 5] [nM] | Emax ([3]; Table 3) [%] | EC50 ([3]; Table 3, read-out: EC50 GLP-1R/nM) [nM] | EC50 [3, 6] [nM] | EC50 ([1]; EC50 GIP-R/nM, Table 3) [nM] | EC50 ([3]; EC50 GLP-1R/nM, Table 3) [nM] |
| --- | --- | --- | --- | --- | --- | --- | --- | --- | --- | --- | --- | --- | --- | --- |
| CCCCCCCCCCCCCCCC(=O)N[C@@H](CCC(=O)NCCCC[C@H](NC(=O)[C@H](CO)NC(=O)[C@@H]1CCCN1C(=O)[C@@H]1CCCN1C(=O)[C@@H]1CCCN1C(=O)[C@H](C)NC(=O)CNC(=O)[C@H](CO)NC(=O)[C@H](CO)NC(=O)[C@@H]1CCCN1C(=O)CNC(=O)CNC(=O)[C@H](C)NC(=O)[C@H](CC(C)C)NC(=O)[C@H](CC(C)C)NC(=O)[C@H](Cc1c[nH]c2ccccc12)NC(=O)[C@H](CC(N)=O)NC(=O)[C@@H](NC(=O)[C@H](Cc1ccccc1)NC(=O)[C@H](CCC(=O)O)NC(=O)C(C)(C)NC(=O)[C@H](C)NC(=O)[C@H](C)NC(=O)[C@H](CCC(N)=O)NC(=O)[C@H](CCCCN)NC(=O)[C@H](CC(=O)O)NC(=O)[C@H](CC(C)C)NC(=O)[C@H](Cc1ccc(O)cc1)NC(=O)[C@@H](NC(=O)[C@H](CO)NC(=O)[C@H](Cc1ccc(O)cc1)NC(=O)[C@H](CC(=O)O)NC(=O)[C@H](CO)NC(=O)[C@@H](NC(=O)[C@H](Cc1ccccc1)NC(=O)[C@@H](NC(=O)CNC(=O)[C@H](CCC(=O)O)NC(=O)CSCC(=O)NCCn1[nH]c(=O)ccc1=O)[C@@H](C)O)[C@@H](C)O)[C@@H](C)CC)C(C)C)C(N)=O)C(=O)O [Compound 241] | 10 to 100 | 46 | > 1000 | 1 to 10 | 100 |  |  |  |  |  |  |  |  |  |
| CC[C@H](C)[C@H](NC(=O)[C@H](CO)NC(=O)[C@H](Cc1ccc(O)cc1)NC(=O)[C@H](CC(=O)O)NC(=O)[C@H](CO)NC(=O)[C@@H](NC(=O)[C@H](Cc1ccccc1)NC(=O)[C@@H](NC(=O)CNC(=O)[C@H](CCC(=O)O)NC(=O)CCCNC(=O)CCN1C(=O)c2ccccc2C1=O)[C@@H](C)O)[C@@H](C)O)C(=O)N[C@@H](Cc1ccc(O)cc1)C(=O)N[C@@H](CC(C)C)C(=O)N[C@@H](CC(=O)O)C(=O)N[C@@H](CCCCN)C(=O)N[C@@H](CCC(N)=O)C(=O)N[C@@H](C)C(=O)N[C@@H](C)C(=O)NC(C)(C)C(=O)N[C@@H](CCC(=O)O)C(=O)N[C@@H](Cc1ccccc1)C(=O)N[C@H](C(=O)N[C@@H](CC(N)=O)C(=O)N[C@@H](Cc1c[nH]c2ccccc12)C(=O)N[C@@H](CC(C)C)C(=O)N[C@@H](CC(C)C)C(=O)N[C@@H](C)C(=O)NCC(=O)NCC(=O)N1CCC[C@H]1C(=O)N[C@@H](CO)C(=O)N[C@@H](CO)C(=O)NCC(=O)N[C@@H](C)C(=O)N1CCC[C@H]1C(=O)N1CCC[C@H]1C(=O)N1CCC[C@H]1C(=O)N[C@@H](CO)C(=O)N[C@@H](CCCCN)C(N)=O)C(C)C [Compound 154] |  | 78 |  |  | 80 | 78 | 1 to 10 | 1 to 10 | > 1000 | 80 | 1 to 10 | 1 to 10 |  |  |
| CCCCCCCCCCCCCCCC(=O)N[C@@H](CCC(=O)NCCCC[C@H](NC(=O)[C@H](CO)NC(=O)[C@@H]1CCCN1C(=O)[C@@H]1CCCN1C(=O)[C@@H]1CCCN1C(=O)[C@H](C)NC(=O)CNC(=O)[C@H](CO)NC(=O)[C@H](CO)NC(=O)[C@@H]1CCCN1C(=O)CNC(=O)CNC(=O)[C@H](C)NC(=O)[C@H](CC(C)C)NC(=O)[C@H](CC(C)C)NC(=O)[C@H](Cc1c[nH]c2ccccc12)NC(=O)[C@H](CC(N)=O)NC(=O)[C@@H](NC(=O)[C@H](Cc1ccccc1)NC(=O)[C@H](CCC(=O)O)NC(=O)C(C)(C)NC(=O)[C@H](C)NC(=O)[C@H](C)NC(=O)[C@H](CCC(N)=O)NC(=O)[C@H](CCCCN)NC(=O)[C@H](CC(=O)O)NC(=O)[C@H](CC(C)C)NC(=O)[C@H](Cc1ccc(O)cc1)NC(=O)[C@@H](NC(=O)[C@H](CO)NC(=O)[C@H](Cc1ccc(O)cc1)NC(=O)[C@H](CC(=O)O)NC(=O)[C@H](CO)NC(=O)[C@@H](NC(=O)[C@H](Cc1ccccc1)NC(=O)[C@@H](NC(=O)CNC(=O)[C@H](CCC(=O)O)NC(=O)C(C)(C)CC(=O)NCCN1CCOCC1=O)[C@@H](C)O)[C@@H](C)O)[C@@H](C)CC)C(C)C)C(N)=O)C(=O)O [Compound 244] |  | 50 |  |  | 100 |  |  | 1 to 10 | 10 to 1000 |  |  | < 0.1 |  |  |
| CCCCCCCCCCCCCCCC(=O)N[C@@H](CCC(=O)NCCCC[C@H](NC(=O)[C@H](CO)NC(=O)[C@@H]1CCCN1C(=O)[C@@H]1CCCN1C(=O)[C@@H]1CCCN1C(=O)[C@H](C)NC(=O)CNC(=O)[C@H](CO)NC(=O)[C@H](CO)NC(=O)[C@@H]1CCCN1C(=O)CNC(=O)CNC(=O)[C@H](C)NC(=O)[C@H](CC(C)C)NC(=O)[C@H](CC(C)C)NC(=O)[C@H](Cc1c[nH]c2ccccc12)NC(=O)[C@H](CC(N)=O)NC(=O)[C@@H](NC(=O)[C@H](Cc1ccccc1)NC(=O)[C@H](CCC(=O)O)NC(=O)C(C)(C)NC(=O)[C@H](C)NC(=O)[C@H](C)NC(=O)[C@H](CCC(N)=O)NC(=O)[C@H](CCCCN)NC(=O)[C@H](CC(=O)O)NC(=O)[C@H](CC(C)C)NC(=O)[C@H](Cc1ccc(O)cc1)NC(=O)[C@@H](NC(=O)[C@H](CO)NC(=O)[C@H](Cc1ccc(O)cc1)NC(=O)[C@H](CC(=O)O)NC(=O)[C@H](CO)NC(=O)[C@@H](NC(=O)[C@H](Cc1ccccc1)NC(=O)[C@@H](NC(=O)CNC(=O)[C@H](CCC(=O)O)NC(=O)CSCC(=O)NCCn1ccc(=O)[nH]c1=O)[C@@H](C)O)[C@@H](C)O)[C@@H](C)CC)C(C)C)C(N)=O)C(=O)O [Compound 239] | 10 to 100 | 46 | > 1000 | 0.1 to 1 | 100 |  |  |  |  |  |  |  |  |  |
| CCCCCCCCCCCCCCCC(=O)N[C@@H](CCC(=O)NCCCC[C@H](NC(=O)[C@H](CO)NC(=O)[C@@H]1CCCN1C(=O)[C@@H]1CCCN1C(=O)[C@@H]1CCCN1C(=O)[C@H](C)NC(=O)CNC(=O)[C@H](CO)NC(=O)[C@H](CO)NC(=O)[C@@H]1CCCN1C(=O)CNC(=O)CNC(=O)[C@H](C)NC(=O)[C@H](CC(C)C)NC(=O)[C@H](CC(C)C)NC(=O)[C@H](Cc1c[nH]c2ccccc12)NC(=O)[C@H](CC(N)=O)NC(=O)[C@@H](NC(=O)[C@H](Cc1ccccc1)NC(=O)[C@H](CCC(=O)O)NC(=O)C(C)(C)NC(=O)[C@H](C)NC(=O)[C@H](C)NC(=O)[C@H](CCC(N)=O)NC(=O)[C@H](CCCCN)NC(=O)[C@H](CC(=O)O)NC(=O)[C@H](CC(C)C)NC(=O)[C@H](Cc1ccc(O)cc1)NC(=O)[C@@H](NC(=O)[C@H](CO)NC(=O)[C@H](Cc1ccc(O)cc1)NC(=O)[C@H](CC(=O)O)NC(=O)[C@H](CO)NC(=O)[C@@H](NC(=O)[C@H](Cc1ccccc1)NC(=O)[C@@H](NC(=O)CNC(=O)[C@H](CCC(=O)O)NC(=O)CSCC(=O)NCCN1CC[C@H](OC)C1=O)[C@@H](C)O)[C@@H](C)O)[C@@H](C)CC)C(C)C)C(N)=O)C(=O)O [Compound 14] |  |  | > 1000 | 0.1 to 1 | 81 | < 10 |  |  |  | 81 |  |  | 10 to 100 | 0.1 to 1 |
